Legend:
[1] = molecular target: T1, Rap guanine nucleotide exchange factor 3 (Homo sapiens, UniProt O95398); experiment: Antagonist activity at recombinant human full length EPAC1 assessed as inhibition of EPAC1-mediated Rap1B (1 to 167 residues)-BODIPY GDP nucleotide exchange activity in presence of 20 uM cAMP
T1 sequence (O95398 whole entry): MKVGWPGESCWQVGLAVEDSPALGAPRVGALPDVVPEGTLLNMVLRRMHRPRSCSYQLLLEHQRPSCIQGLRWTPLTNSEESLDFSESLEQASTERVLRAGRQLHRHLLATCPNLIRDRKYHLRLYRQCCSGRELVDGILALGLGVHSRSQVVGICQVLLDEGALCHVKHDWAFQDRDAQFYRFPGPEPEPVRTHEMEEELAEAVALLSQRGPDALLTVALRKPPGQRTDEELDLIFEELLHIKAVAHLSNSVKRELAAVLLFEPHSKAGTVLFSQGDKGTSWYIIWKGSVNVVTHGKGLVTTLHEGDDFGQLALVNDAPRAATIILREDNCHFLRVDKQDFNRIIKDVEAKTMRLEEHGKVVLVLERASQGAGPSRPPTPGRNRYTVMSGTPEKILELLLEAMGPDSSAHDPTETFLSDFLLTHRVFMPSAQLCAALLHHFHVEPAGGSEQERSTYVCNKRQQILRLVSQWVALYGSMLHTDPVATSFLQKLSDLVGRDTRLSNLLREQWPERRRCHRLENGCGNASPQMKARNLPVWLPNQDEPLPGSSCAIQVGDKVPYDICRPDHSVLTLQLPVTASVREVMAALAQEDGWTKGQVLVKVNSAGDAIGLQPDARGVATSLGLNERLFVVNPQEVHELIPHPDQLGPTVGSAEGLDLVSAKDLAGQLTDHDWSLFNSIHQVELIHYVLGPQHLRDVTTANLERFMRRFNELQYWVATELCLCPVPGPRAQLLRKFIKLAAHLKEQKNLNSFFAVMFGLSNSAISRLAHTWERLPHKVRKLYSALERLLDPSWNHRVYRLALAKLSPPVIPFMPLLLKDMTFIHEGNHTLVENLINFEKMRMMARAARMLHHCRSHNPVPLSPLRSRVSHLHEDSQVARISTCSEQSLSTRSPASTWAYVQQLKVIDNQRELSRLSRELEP

[2] = molecular target: T2, Rap guanine nucleotide exchange factor 4 (Mus musculus, UniProt Q9EQZ6); experiment: Antagonist activity at mouse EPAC2 assessed as inhibition of EPAC2-mediated Rap1B (1 to 167 residues)-BODIPY GDP nucleotide exchange activity
T2 sequence (Q9EQZ6 whole entry): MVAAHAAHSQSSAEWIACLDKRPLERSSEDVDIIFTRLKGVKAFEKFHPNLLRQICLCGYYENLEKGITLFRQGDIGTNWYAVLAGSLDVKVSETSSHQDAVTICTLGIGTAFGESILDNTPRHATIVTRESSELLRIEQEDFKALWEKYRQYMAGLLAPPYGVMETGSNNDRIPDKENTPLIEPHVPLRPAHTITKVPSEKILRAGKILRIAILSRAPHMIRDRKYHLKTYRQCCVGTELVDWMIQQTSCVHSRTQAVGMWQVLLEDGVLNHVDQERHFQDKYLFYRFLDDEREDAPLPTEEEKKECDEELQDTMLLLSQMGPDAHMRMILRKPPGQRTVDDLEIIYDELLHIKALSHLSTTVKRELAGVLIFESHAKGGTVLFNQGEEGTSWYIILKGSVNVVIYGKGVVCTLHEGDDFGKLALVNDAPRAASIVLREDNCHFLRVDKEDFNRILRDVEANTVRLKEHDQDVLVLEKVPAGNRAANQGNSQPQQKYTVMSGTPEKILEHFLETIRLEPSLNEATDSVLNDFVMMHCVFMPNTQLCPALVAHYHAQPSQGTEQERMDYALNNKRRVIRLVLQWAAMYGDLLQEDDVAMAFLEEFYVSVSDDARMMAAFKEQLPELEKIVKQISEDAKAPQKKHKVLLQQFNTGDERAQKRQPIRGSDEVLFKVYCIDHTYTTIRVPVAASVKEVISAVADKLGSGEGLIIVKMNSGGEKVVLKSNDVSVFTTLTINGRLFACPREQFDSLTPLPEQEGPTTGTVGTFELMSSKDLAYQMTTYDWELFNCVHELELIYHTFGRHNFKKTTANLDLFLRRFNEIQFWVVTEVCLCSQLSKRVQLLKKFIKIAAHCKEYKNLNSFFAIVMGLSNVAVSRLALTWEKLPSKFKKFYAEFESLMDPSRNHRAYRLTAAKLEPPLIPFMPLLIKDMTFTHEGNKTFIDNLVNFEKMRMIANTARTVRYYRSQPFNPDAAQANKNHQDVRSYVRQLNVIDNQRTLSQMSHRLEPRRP

[3] = Ratio of IC50 for recombinant human full length EPAC1 to IC50 for mouse EPAC2

Ratio IC50 [3]	Compound	IC50 [1] [µM]	IC50 [2] [µM]
–	N#C/C(=N\Nc1cccc(Cl)c1)C(=O)c1noc2ccccc12	13.2	–
–	N#C/C(=N\Nc1ccc(C(F)(F)F)c(Cl)c1)C(=O)c1noc2ccccc12	3	2.2
–	N#C/C(=N\Nc1cc(Cl)cc(C(F)(F)F)c1)C(=O)c1cc(-c2ccco2)on1	3.6	2.2
–	CC(C)(C)c1ccc(-c2cc(C(=O)/C(C#N)=N/Nc3cccc(Cl)c3)no2)cc1	8.6	–
–	N#C/C(=N\Nc1cc(Cl)cc(C(F)(F)F)c1)C(=O)c1noc2ccccc12	4.6	2.2
–	CC(C)(C)c1ccc(-c2cc(C(=O)/C(C#N)=N/Nc3ccc(C(F)(F)F)c(Cl)c3)no2)cc1	9	–
–	N#C/C(=N\Nc1ccc(Cl)c(C(F)(F)F)c1)C(=O)c1noc2ccccc12	2.7	1.9
–	N#C/C(=N\Nc1ccc(Cl)c(C(F)(F)F)c1)C(=O)c1cc(-c2ccccc2)on1	–	2.3
–	CC(C)(C)c1cc(C(=O)/C(C#N)=N/Nc2cc(Cl)c(Cl)c(Cl)c2)no1	2.7	–
–	N#C/C(=N\Nc1cc(Cl)cc(C(F)(F)F)c1)C(=O)c1cc(-c2ccccc2)on1	9.5	–
–	COc1ccc(-c2cc(C(=O)/C(C#N)=N/Nc3cccc(Cl)c3)no2)cc1	11.4	–
–	N#C/C(=N\Nc1ccc(Cl)c(C(F)(F)F)c1)C(=O)c1cc(-c2ccc(Cl)cc2)on1	7.8	–
–	COc1ccc(-c2cc(C(=O)/C(C#N)=N/Nc3cc(C(F)(F)F)cc(C(F)(F)F)c3)no2)cc1	5.6	7
–	COc1ccc(-c2cc(C(=O)/C(C#N)=N/Nc3ccc(Cl)c(C(F)(F)F)c3)no2)cc1	–	4.5
–	N#C/C(=N\Nc1cc(C(F)(F)F)cc(C(F)(F)F)c1)C(=O)c1noc2ccccc12	6.7	–
–	N#C/C(=N\Nc1cccc(Cl)c1)C(=O)c1cc(-c2ccco2)on1	9.9	–
–	N#C/C(=N\Nc1cc(C(F)(F)F)cc(C(F)(F)F)c1)C(=O)c1cc(-c2ccccc2)on1	7.2	3.3
–	N#C/C(=N\Nc1cccc(Cl)c1)C(=O)c1cc(-c2ccccc2)on1	> 150	–
–	CC(C)(C)c1ccc(-c2cc(C(=O)/C(C#N)=N/Nc3ccc(Cl)c(C(F)(F)F)c3)no2)cc1	7.3	2.2
–	N#C/C(=N\Nc1ccc(F)c(Cl)c1)C(=O)c1noc2ccccc12	8.5	–
–	N#C/C(=N\Nc1cc(F)cc(Cl)c1)C(=O)c1noc2ccccc12	18.9	–
2.5	CC(C)(C)c1cc(C(=O)/C(C#N)=N/Nc2cccc(Cl)c2)no1	–	4.4
–	CC(C)(C)c1ccc(-c2cc(C(=O)/C(C#N)=N/Nc3cc(C(F)(F)F)cc(C(F)(F)F)c3)no2)cc1	11.9	–
–	N#C/C(=N\Nc1ccc(Cl)c(C(F)(F)F)c1)C(=O)c1cc(-c2ccco2)on1	4.2	2.3
